Data on 21 compounds can be found in ChEMBL document CHEMBL1130365, “4-Sulfonamidoanilide tertiary carbinols: A novel series of potassium channel openers” (Bioorg Med Chem Lett, 1997).

This test has as its target Sulfonylurea receptors; K-ATP channels (Homo sapiens, UniProt O60706+Q09428+Q14654+Q15842). As to the kind of experiment: Compound was measured in vitro for potassium channel opening (PCO) activity. It is filed as protein-complex assay, Cavia porcellus.

Usually IC50 stands for the concentration that gives 50% inhibition. The compound `CCC(C)N(C(C)CC)S(=O)(=O)c1ccc(NC(=O)C(C)(O)C(F)(F)F)cc1` (racemic) registered an IC50 greater than 30 µM.
Then `CC(O)(C(=O)Nc1ccc(-c2nn[nH]n2)cc1)C(F)(F)F` (racemic), with greater than 30 µM; and `CC(O)(C(=O)Nc1ccc(S(=O)(=O)N2CCCC2)cc1)C(F)(F)F` (racemic), with 0.88 µM.
`CC(O)(C(=O)Nc1ccc(S(N)(=O)=O)cc1)C(F)(F)F` (racemic) gave a half-maximal inhibitory concentration (IC50) of 12.8 µM.
As to `CC(O)(C(=O)Nc1ccc(Sc2ccccc2)cc1)C(F)(F)F` (racemic), the IC50 is greater than 30 µM.
On to `CC(O)(C(=O)Nc1ccc(S(=O)(=O)N2CCNCC2)cc1)C(F)(F)F` (racemic), for which the IC50 is greater than 30 µM.
The compound `CCN(CC)C(=O)c1ccc(NC(=O)C(C)(O)C(F)(F)F)cc1` (racemic) registered an IC50 greater than 30 µM.
In turn, `Cn1nnnc1-c1ccc(NC(=O)C(C)(O)C(F)(F)F)cc1` (racemic) displayed a 50% inhibitory concentration (IC50) of 30.9 µM.
With `CCN(CC)S(=O)(=O)c1ccc(NC(=O)C(C)(O)C(F)(F)F)cc1` (racemic), the midpoint of inhibition, the IC50, lay at 0.81 µM.
`CC(O)(C(=O)Nc1ccc(S(=O)(=O)N2CCSCC2)cc1)C(F)(F)F` (racemic) yielded an IC50 of 4.58 µM.
Compound `CC(O)(C(=O)Nc1ccc([C@H](O)c2ccccc2)cc1)C(F)(F)F` (mixture of isomers) came in with an IC50 greater than 30 µM.
Regarding `CO/N=C(/c1ccccc1)c1ccc(NC(=O)C(C)(O)C(F)(F)F)cc1` (racemic), the IC50 is greater than 30 µM.
Then `CCCN(CCC)S(=O)(=O)c1ccc(NC(=O)C(C)(O)C(F)(F)F)cc1` (racemic), with 6.44 µM; and `CC(O)(C(=O)Nc1ccc(S(=O)(=O)N2CCCCC2)cc1)C(F)(F)F` (racemic), with 9.25 µM; and `CC(O)(C(=O)Nc1ccc(S(=O)(=O)N(c2ccccc2)c2ccccc2)cc1)C(F)(F)F` (racemic), with greater than 30 µM.
Take `CC(O)(C(=O)Nc1ccc(S(=O)(=O)Nc2ccccc2)cc1)C(F)(F)F` (racemic): the IC50 is greater than 30 µM.
Turning to `CC(C)CN(CC(C)C)S(=O)(=O)c1ccc(NC(=O)C(C)(O)C(F)(F)F)cc1` (racemic), the half-maximal inhibitory concentration (IC50) is greater than 30 µM.
In turn, `CC(O)(C(=O)Nc1ccc(S(=O)(=O)N2CCOCC2)cc1)C(F)(F)F` (racemic) returned an IC50 of 5.85 µM. This counts as single-digit micromolar.
`CC(O)(C(=O)Nc1ccc([C@@H](O)c2ccccc2)cc1)C(F)(F)F` (mixture of isomers) came in with an IC50 greater than 30 µM.
`CN(C)S(=O)(=O)c1ccc(NC(=O)C(C)(O)C(F)(F)F)cc1` (racemic) came in with an IC50 of 0.48 µM.
On to `CC(O)(C(=O)Nc1ccc(/C(=N\O)c2ccccc2)cc1)C(F)(F)F` (mixture of isomers), for which the IC50 is greater than 30 µM.
